# Several values for one entry are separate records, joined by “and”; a condition that tells them apart may be missing. Equal values may be shown once.
# How the values were obtained:
# [1] = test system: methane seep sediment; assay: Control experiments without methane (sediment with AQDS under nitrogen); type: cell-based; conditions: AQDS 10 mM, after 3 weeks
# Procedure: (§1) Quantification of reduced AQDS by iodometry. Reduced AQDS (2,6-AQH2DS) was quantified via iodimetric titration in the anaerobic chamber. A standard solution of ca. 20 mM KI3 was prepared as follows: iodine (254 mg, 2.0 mmol) and potassium iodide (1.66 g, 10 mmol) were dissolved in 100 mL DI water. After 2 days, the clear, dark solution was N2-sparged and brought into the anaerobic chamber. The exact concentration of the KI3 standard solution was quantified to be 19.5 mM via duplicate titration with sodium thiosulfate (exactly 101.5 mM, N2-sparged). Procedure for the quantification of reduced AQDS in the incubations: 1000 μL anaerobic assay solution centrifuged in the anaerobic chamber+200 μL anaerobic HEPES (1.0 M, pH=7.5)+KI3 standard solution as needed until color minimum, added in steps of 100 μL first, then in steps of 10 μL when closer to the equivalence point.
# Control experiments without methane. […] To confirm that the methanotrophic microorganisms in the sediment had not been killed during the nitrogen+AQDS incubation, methane was later injected into these incubation bottles after 3 weeks.
# [2] = test system: methane seep sediment (ANME archaea); assay: Quantification of reduced AQDS by iodometry in AOM incubations; type: cell-based, ANME-2a and ANME-2c; conditions: after 21-day incubation
# Procedure: as §1
# [3] = test system: ANME-SRB consortia; assay: FISH-nanoSIMS 15N incorporation (anabolic activity) of ANME-SRB consortia; type: cell-based, ANME-2c archaea and Desulfobacteraceae
# Procedure: Incubations for FISH-nanoSIMS and RNA analysis. For AOM incubations with sulfate or AQDS that were used for nanoSIMS (FIG. 7 and FIG. 8A) and RNA analysis (FIG. 6), incubations experiments were set up following the AOM-rate measurements described above (initially containing 1.0 mM ammonium without ^15N label). Methane oxidation rates were tracked in these incubations via the ^13C label. After 11 days, ca. 3.5 mL of supernatant remained in the serum bottles to which 3.0 mL artificial seawater without ammonium containing either 25 mM AQDS, 28 mM sulfate, or no oxidant or electron acceptor was added. Next, 0.1 mL ^15NH4^+ (100 mM) was injected to yield about 2.0 mM ammonium with ca. 75% ^15N. Methane oxidation was monitored. After additional 8 days, the medium of the AQDS incubations was exchanged by 5.0 mL new medium containing 25 mM AQDS and 2.0 mM ^15NH4^+. Now the AQDS incubations contained ca. 95% ^15NH4^+ in the ammonium pool. The cultures were incubated for additional 10 days before harvest. Total incubation time with labeled ammonium: 18 days. Average labeling strength: ca. 75% for sulfate and no oxidant or electron acceptor control; ca. 86% for the AQDS incubations.
# For the second independent set of experiments with iron citrate, humic acids and sulfate (FIG. 8B), the medium contained 1.0 mM ammonium with ca. 40% ^15N label throughout the incubation period. These experiments were carried out from identical incubations that were for the AOM rate measurements (highlighted in Table 4). In regards to Table 4, the percentage AOM rates are reported relative to sulfate-coupled AOM (1.50 μmol cm^−3 day^−1). Top: Summary of compounds described in FIG. 1B; Bottom: Oxidants or electron acceptors resulting in an AOM rate less than 0.10 μmol […] day^−1 (<7% rel. to sulfate as oxidant or electron acceptor).
# Sampling for FISH-nanoSIMS and RNA. After an 18-day incubation in the presence of ^15NH4^+, each incubation was shaken to suspend the sediment and 1.0 mL sediment slurry was sampled using a disposable sterile needle and syringe (ca. 0.3 mL wet sediment). […]
# Sample preparation for aggregate embedding, sectioning, FISH, and nanoSIMS. […] Sections of ca. 1 μm thickness were cut and stretched on a water droplet on a polylysine coated slide with teflon wells (Tekdon Inc) and analyzed by fluorescence in situ hybridization (FISH). […]
# FISH conditions and probes. The FISH hybridization on thin sections of resin embedded microbial aggregates followed the recently optimized protocol described in S. E. McGlynn et al. The phylogenetic identity of microorganisms in the thin sections were determined using conventional FISH using oligonucleotide probes fluorescently labeled on both the 5′ and 3′ ends (dual labeled) as outlined herein. […]
# [4] = test system: methane seep sediment (ANME archaea); assay: AOM rate measurement via 13C-methane (newly formed DIC) in methane seep sediment incubations; type: cell-based, ANME-2a and ANME-2c; conditions: 22.5° C.
# [5] = Quantification of AQDS solubility in the incubation medium; type: physicochemical
# Procedure: Quantification of AQDS solubility in the incubation medium. Different regioisomers of AQDS (1,5-AQDS, 2,6-AQDS and 2,7-AQDS) were separately added to the modified artificial seawater described above, to a targeted final concentration of 25 mM. The suspensions were ultra-sonicated at room temperature to dissolve as much of the AQDS as possible. The tubes were kept at 4° C. or at 22.5° C. overnight. The tubes were centrifuged at 4° C. or 22.5° C. (16000 rcf, 30 min). The supernatant (300 μL) was mixed with 300 μL acetate (10.0 mM) as the internal standard and 100 μL deuterated water (99.9% D, Cambridge Isotope Laboratories) was added. The concentration of AQDS was obtained from integration of the ^1H-NMR spectra by comparison relative to the acetate standard.
smiles,measurement,setting,value
"O=C1c2ccc(S(=O)(=O)O)cc2C(=O)c2ccc(S(=O)(=O)O)cc21 [AQDS, 9,10-anthraquinone-2,6-disulfonate]",reduced AQDS generated without methane,[1],less than 1 mM
same,AQH2DS (final concentration of reduced AQDS),[2]; AQDS 10 mM + MoO4^2− 25 mM,9.2 mM and 9.8 mM
same,AQH2DS (final concentration of reduced AQDS),[2]; AQDS 10 mM,8.6 mM and 9.6 mM
same,doubling time of ANME cells based on average 15N-incorporation,[3]; 18 days with 15NH4+,3.3 months
same,anabolic activity within ANME-SRB consortia,[3]; sulfate-free incubations,occurred only in the ANME archaea
same,AOM rates compared with sulfate,[4],exceeded
same,Solubility in the incubation medium,[5]; 4° C.,900 µM
same,Solubility in the incubation medium,[5]; 22.5° C.,1900 µM

# From patent US10011813B2, “Methane oxidation methods and compositions” (California Institute of Technology, priority 2015, dated 2018)
